How the values were obtained:
Type in all cases: in vivo
[1] = test system: barnyardgrass (Echinochloa crus-galli L.), ECHCG; test: Test Example 2 post-emergence (foliage treatment) herbicidal activity, ECHCG; details: 63 g a.i./ha
Source text: (§1) Upland field soil was put into a 1/170,000 ha pot, and seeds of various plants were sown. Then, when the plants reached predetermined leaf stages {1. barnyardgrass (Echinochloa crus-galli L.), ECHCG: 1.1-2.1 leaf stage, 2. crabgrass (Digitaria sanguinalis L.), DIGSA: 1.0-2.0 leaf stage, 3. green foxtail (Setaria viridis L.), SETVI: 1.0-2.2 leaf stage, 4. redroot pigweed (Amaranthus retroflexus L.), AMARE: 0.1-1.5 leaf stage, 5. prickly sida (Sida spinosa L.), SIDSP: 0.1-0.6 leaf stage, 6. velvetleaf (Abutilon theophrasti), ABUTH: 0.1-0.6 leaf stage, 7. common cocklebur (Xanthium strumarium L.), XANST: 0.1 leaf stage, 8. rice (Oryza sativa L.), ORYSA; 1.0-2 leaf stage, 9. wheat (Triticum aestivum L.), TRZAX: 2.3-3.5 leaf stage, 10. corn (Zea mays L.), ZEAMXN 2.1-2.6 leaf stage, 11. soybean (Glycine max Merr.), GLXMA: primary leaf stage}, a wettable powder or emulsifiable concentrate having the compound of the present invention formulated in accordance with a usual formulation method, was weighed so that the active ingredient would be a predetermined amount, and diluted with water in an amount of 500 L/ha. To the diluted solution, 0.1% (v/v) of an agricultural spreader was added. The herbicide adjusted was applied by a small size sprayer for foliage treatment. On the 20th to 23rd day after the application of the herbicide, the growth of the respective plants was visually observed, and the herbicidal effects were evaluated by growth controlling degrees (%) ranging from 0 (equivalent to the untreated control) to 100 (complete kill), whereby the results shown in Table 5, were obtained. Compound Nos. in Table 5 correspond to Compound Nos. in Table 1 and 2 given hereinbefore.

[2] = test system: wheat (Triticum aestivum L.): TRZAX; test: Test Example 1 pre-emergence herbicidal activity, TRZAX; details: Rate 63 g a.i./ha, visually observed 20th to 23rd day after application
Source text: (§2) Upland field soil was put into a 1/170,000 ha pot, and seeds of various plants {1. barnyardgrass (Echinochloa crus-galli L.): ECHCG, 2. crabgrass (Digitaria sanguinalis L.): DIGSA, 3. green foxtail (Setaria viridis L.): SETVI, 4. redroot pigweed (Amaranthus retroflexus L.): AMARE, 5. prickly sida (Sida spinosa L.): SEDSP, 6. velvetleaf (Abutilon theophrasti): ABUTH, 7. common cocklebur (Xanthium strumarium L.): XANST, 8. rice (Oryza sativa L.): ORYSA, 9. wheat (Triticum aestivum L.): TRZAX, 10. corn (Zea mays L.): ZEAMX, 11. soybean (Glycine max Merr.): GLXMA} were sown. Then, one day after the sowing, a wettable powder or emulsifiable concentrate having the compound of the present invention formulated in accordance with a usual formulation method, was weighed so that the active ingredient would be a predetermined amount and diluted with water in an amount of 500 L/ha. The herbicide adjusted was applied by a small size sprayer for preemergence treatment. On the 20th to 23rd day after the application of the herbicide, the growth of the respective plants was visually observed, and the herbicidal effects were evaluated by growth controlling degrees (%) ranging from 0 (equivalent to the untreated control) to 100 (complete kill), whereby the results shown in Table 4, were obtained. Compound Nos. in Table 4 correspond to Compound Nos. in Table 1 and 2 given hereinbefore.

[3] = test system: crabgrass (Digitaria sanguinalis L.), DIGSA; test: Test Example 2 post-emergence (foliage treatment) herbicidal activity, DIGSA; details: 63 g a.i./ha
Source text: as §1

[4] = test system: velvetleaf (Abutilon theophrasti), ABUTH; test: Test Example 2 post-emergence (foliage treatment) herbicidal activity, ABUTH; details: 63 g a.i./ha
Source text: as §1

[5] = test system: green foxtail (Setaria viridis L.), SETVI; test: Test Example 2 post-emergence (foliage treatment) herbicidal activity, SETVI; details: 63 g a.i./ha
Source text: as §1

[6] = test system: rice (Oryza sativa L.), ORYSA; test: Test Example 2 post-emergence (foliage treatment) herbicidal activity, ORYSA; details: 63 g a.i./ha
Source text: as §1

[7] = test system: crabgrass (Digitaria sanguinalis L.): DIGSA; test: Test Example 1 pre-emergence herbicidal activity, DIGSA; details: Rate 63 g a.i./ha, visually observed 20th to 23rd day after application
Source text: as §2

[8] = test system: barnyardgrass (Echinochloa crus-galli L.): ECHCG; test: Test Example 1 pre-emergence herbicidal activity, ECHCG; details: Rate 63 g a.i./ha, visually observed 20th to 23rd day after application
Source text: as §2

[9] = test system: corn (Zea mays L.), ZEAMX; test: Test Example 2 post-emergence (foliage treatment) herbicidal activity, ZEAMX; details: 63 g a.i./ha
Source text: as §1

[10] = test system: corn (Zea mays L.): ZEAMX; test: Test Example 1 pre-emergence herbicidal activity, ZEAMX; details: Rate 63 g a.i./ha, visually observed 20th to 23rd day after application
Source text: as §2

[11] = test system: wheat (Triticum aestivum L.), TRZAX; test: Test Example 2 post-emergence (foliage treatment) herbicidal activity, TRZAX; details: 63 g a.i./ha
Source text: as §1

[12] = test system: green foxtail (Setaria viridis L.): SETVI; test: Test Example 1 pre-emergence herbicidal activity, SETVI; details: Rate 63 g a.i./ha, visually observed 20th to 23rd day after application
Source text: as §2

[13] = test system: soybean (Glycine max Merr.), GLXMA; test: Test Example 2 post-emergence (foliage treatment) herbicidal activity, GLXMA; details: 63 g a.i./ha
Source text: as §1

[14] = test system: rice (Oryza sativa L.): ORYSA; test: Test Example 1 pre-emergence herbicidal activity, ORYSA; details: Rate 63 g a.i./ha, visually observed 20th to 23rd day after application
Source text: as §2

[15] = test system: prickly sida (Sida spinosa L.): SEDSP; test: Test Example 1 pre-emergence herbicidal activity, SIDSP; details: Rate 63 g a.i./ha, visually observed 20th to 23rd day after application
Source text: as §2

[16] = test system: velvetleaf (Abutilon theophrasti): ABUTH; test: Test Example 1 pre-emergence herbicidal activity, ABUTH; details: Rate 63 g a.i./ha, visually observed 20th to 23rd day after application
Source text: as §2

[17] = test system: redroot pigweed (Amaranthus retroflexus L.): AMARE; test: Test Example 1 pre-emergence herbicidal activity, AMARE; details: Rate 63 g a.i./ha, visually observed 20th to 23rd day after application
Source text: as §2

[18] = test system: soybean (Glycine max Merr.): GLXMA; test: Test Example 1 pre-emergence herbicidal activity, GLXMA; details: Rate 63 g a.i./ha, visually observed 20th to 23rd day after application
Source text: as §2

[19] = test system: prickly sida (Sida spinosa L.), SIDSP; test: Test Example 2 post-emergence (foliage treatment) herbicidal activity, SIDSP; details: 63 g a.i./ha
Source text: as §1

Compound | growth controlling degree, ECHCO [1] [%] | Pre-emergence Herbicidal Activity TRZAX (growth controlling degree) [2] [%] | growth controlling degree, DIGSP [3] [%] | growth controlling degree, ABUTH [4] [%] | growth controlling degree, SETVI [5] [%] | growth controlling degree, ORYSA [6] [%] | Pre-emergence Herbicidal Activity DIGSP (growth controlling degree) [7] [%] | Pre-emergence Herbicidal Activity ECHCG (growth controlling degree) [8] [%] | growth controlling degree, ZEAMX [9] [%] | Pre-emergence Herbicidal Activity ZEAMX (growth controlling degree) [10] [%] | growth controlling degree, TRZAX [11] [%] | Pre-emergence Herbicidal Activity SETVI (growth controlling degree) [12] [%] | growth controlling degree, GLXMA [13] [%] | Pre-emergence Herbicidal Activity ORYSA (growth controlling degree) [14] [%] | Pre-emergence Herbicidal Activity SIDSP (growth controlling degree) [15] [%] | Pre-emergence Herbicidal Activity ABUTH (growth controlling degree) [16] [%] | Pre-emergence Herbicidal Activity AMARE (growth controlling degree) [17] [%] | Pre-emergence Herbicidal Activity GLXMA (growth controlling degree) [18] [%] | growth controlling degree, SIDSP [19] [%]
COc1c(Cl)cc(F)c(-c2nn(C)c(OC(F)F)c2Cl)c1NC(=O)C=Cc1ccccc1F [Compound 1-256] | 60 | 10 | 60 | 100 | 90 | 80 | 90 | 60 | 30 | 0 | 60 | 70 | 60 | 30 | 60 | 70 | 100 | 0 | 100
COc1c(Cl)cc(F)c(-c2nn(C)c(OC(F)F)c2Cl)c1NC(=O)OCC1CCCCC1 [Compound 1-73] | 100 | 0 | 10 | 100 | 70 | 50 | 20 | 30 | 10 | 0 | 50 | 60 | 50 | 10 | 20 | 10 | 100 | 0 | 100
COc1c(Cl)cc(F)c(-c2nn(C)c(OC(F)F)c2Cl)c1NC(=O)CCc1cccc(F)c1 [Compound 1-266] | – | 40 | – | – | – | – | 100 | 60 | – | 0 | – | 80 | – | 10 | 100 | 50 | 100 | 0 | –
COc1c(Cl)cc(F)c(-c2nn(C)c(OC(F)F)c2Cl)c1NC(=O)C(C)Cc1ccccc1 (stereo not shown) [Compound 1-268] | – | 20 | – | – | – | – | 100 | 40 | – | 0 | – | 80 | – | 30 | 70 | 80 | 100 | 0 | –

Reference: patent publication US20050245399A1, “Pyrazole derivatives as herbicidal compositions containing them” (ISHIHARA SANGYO KAISHA, LTD., priority 2004, published 2005)
